This assay concerns corpus cavernosum. Nature of the assay: Intracorporal (cavernosal) pressure in anesthetized male dogs after topical papaverine gel with or without ultrasound. It counts as in vivo, dog. The source says:
The invention has reduced to practice and the principles of the invention have been proven by animal experiments. In these experiments, male dogs, one year old, were anesthetized and a midline abdominal incision was made from the xyphoid process down to the symphisis pubis. Proceeding slightly lateral to the left side of the penis, the corpus cavernosum was exposed. Two butterfly needles were placed into one of the corpus cavernosum, one proximally and one distally. The proximal needle was used for intracorporal pressure recordings, while saline was infused through the distal needle. Controlled intracorporal blood pressure (without applying any drugs) was monitored and recorded while saline was perfused at a rate of 1.7 ml/min. Nude mice skin was used to cover the exposed corpora by stitching it to the dog's incised skin. A gel containing 500 mg papaverine (in a base of polyethylene glycol, methyl paraben, butyl paraben, and butylated hydroxytoluene) was applied on the surface of the nude mice skin followed by the application of an ultrasound probe of 1 MHz, pulse mode 30%, at a power level of 2 w/cm^2, for 20 min. In the control experiments, papaverine was applied topically without any ultrasound application and the manometric pressure was monitored. The resulting manometric pressure was compared to the control pressure by measuring the time needed to reach the peak pressure and the time needed for the cavernosal pressure to decline to baseline.
Perfusion of the corpora with saline (with no ultrasound or papaverine application) was performed for 15 sec at a rate of 1.7 ml/min. creating a pressure ranging from 150-220 cm. H2O. The time needed for this pressure to drop to baseline (0-5) was 30 sec. Perfusion of the corpora with saline after applying ultrasound and papaverine reached the same pressure peak in only 5 sec. Moreover, the pressure declined to baseline in 1.5 minutes.

[1] abbreviates: papaverine gel plus ultrasound versus baseline (saline only).

“Also recorded” adds a separate entry of the source.

On to `COc1ccc(Cc2nccc3cc(OC)c(OC)cc23)cc1OC` [papaverine], for which the “time needed to reach the peak pressure” value (gel with 500 mg papaverine on nude mice skin over corpora, ultrasound 1 MHz, pulse mode 30%, 2 w/cm^2, 20 min, saline perfusion 1.7 ml/min) is 5 s. Also, for the setting “gel with 500 mg papaverine plus ultrasound 1 MHz, pulse mode 30%, 2 w/cm^2, 20 min, saline perfusion 1.7 ml/min”, the “time needed for the cavernosal pressure to decline to baseline” value came out at 1.5 min. Further, the “manometric pressure result compared to saline-only control” value (papaverine gel on the skin for 20 min, no ultrasound) was “same results as in the control experiments; also recorded: no greater pressure readings than the no-drug control”. Besides, the “manometric pressure result with ultrasound” value (papaverine gel plus ultrasound treatment) was “rise in pressure which was consistent with erection”. Under setting [1], the “improvement in the period of time established as a baseline for the establishment of erection” value amounted to 300% and the “persistence of effects relative to the baseline erection parameters” value worked out at 500%.
